These results are taken from patent US9204653B2, “5-fluoro pyrimidine derivatives” (DOW AGROSCIENCES LLC, priority 2008, dated 2015).

This test has as its system Mycosphaerella graminicola; Anamorph: Septoria tritici; Bayer Code SEPTTR. The test is described as follows: Leaf blotch of wheat, foliar fungicide treatment, one day protectant (1DP) or three day curative (3DC). The test is classed as in vivo, Septoria tritici on wheat plants (variety Yuma). Particulars: Zymoseptoria tritici, rating of percent disease control.
Where [1] appears, read: 24 h, one day protectant, read-out: SETTTR 1DP 25 ppm.
The mark [2] stands for this setting: 24 h, one day protectant, read-out: SEPTTR 1DP 100 ppm.
Where [3] appears, read: 72 h, three day curative, read-out: SEPTTR 3DC 25 ppm.
[4] abbreviates: 72 h, three day curative, read-out: SEPTTR 3DC 100 ppm.
Where [5] appears, read: 24 h, one day protectant (1DP), read-out: SETTTR 1DP 25 ppm.
[6] abbreviates: 24 h, one day protectant (1DP), read-out: SEPTTR 1DP 100 ppm.

The structures appear in SMILES notation. Like-named read-outs stand apart in the source and are kept apart here.

For the compound `N#Cc1cccc(COc2ncc(F)c(NC(=O)OCc3ccccc3)n2)c1` [Compound 690], the pest or weed control at 25 ppm fell in the range of 51 to 75% under setting [1] and 76 to 100% under setting [3]. Besides, the pest or weed control at 100 ppm under setting [2] lay in the range of 76 to 100% and the pest or weed control at 100 ppm under setting [4] fell in the range of 76 to 100%.
Regarding `Cc1cc(C)c(COc2ncc(F)c(N)n2)cc1C` [Compound 691], the pest or weed control at 25 ppm under setting [1] fell in the range of 51 to 75% and the pest or weed control at 25 ppm under setting [3] was 51 to 75%. Moreover, the pest or weed control at 100 ppm is 76 to 100% under setting [2] and 76 to 100% under setting [4].
As to `COc1cccc(COc2ncc(F)c(/N=C/N(C)C)n2)c1` [Compound 692], the pest or weed control at 25 ppm is, setting by setting: under setting [1], 76 to 100%; under setting [3], 76 to 100%. In addition, the pest or weed control at 100 ppm under setting [2] lay in the range of 76 to 100% and the pest or weed control at 100 ppm under setting [4] lay in the range of 76 to 100%.
As to `Nc1nc(OCc2cc(F)c(F)c(F)c2F)ncc1F` [Compound 693], the pest or weed control at 25 ppm was in the range of 76 to 100% under setting [1] and 76 to 100% under setting [3]. The pest or weed control at 100 ppm under setting [2] was in the range of 76 to 100% and the pest or weed control at 100 ppm under setting [4] lay in the range of 76 to 100%.
`CCCCCCOc1ncc(F)c(NC(C)=O)n1` [Compound 695]: the pest or weed control at 25 ppm by setting is: under setting [1], 0 to 25%; under setting [3], 0 to 25%. The pest or weed control at 100 ppm is 76 to 100% under setting [2] and 26 to 50% under setting [4].
On to `CC(C)(C)c1ccc(COc2ncc(F)c(N)n2)cc1` [Compound 696], for which the pest or weed control at 25 ppm reads like this: under setting [1], 76 to 100%; under setting [3], 51 to 75%. Besides, the pest or weed control at 100 ppm is, setting by setting: under setting [2], 76 to 100%; under setting [4], 76 to 100%.
With `O=C(Nc1ccsc1)Nc1nc(OCCc2ccc(Cl)cc2)ncc1F` [Compound 697], the pest or weed control at 25 ppm lay in the range of 0 to 25% under setting [1] and 26 to 50% under setting [3]. For the same compound, the pest or weed control at 100 ppm lay in the range of 0 to 25% under setting [2] and 26 to 50% under setting [4].
For `COc1ccc(COc2ncc(F)c(N)n2)c(Cl)c1OC` [Compound 698], the pest or weed control at 25 ppm was in the range of 76 to 100% under setting [1] and 76 to 100% under setting [3]. The pest or weed control at 100 ppm under setting [2] lay in the range of 76 to 100% and the pest or weed control at 100 ppm under setting [4] lay in the range of 76 to 100%.
Regarding `Nc1nc(OCc2cnccn2)ncc1F` [Compound 699], the pest or weed control at 25 ppm reads like this: under setting [1], 76 to 100%; under setting [3], 51 to 75%. The pest or weed control at 100 ppm under setting [2] lay in the range of 76 to 100% and the pest or weed control at 100 ppm under setting [4] lay in the range of 76 to 100%.
Take `Fc1ccc(COc2ncc(F)c(N/N=C/c3ccccc3Cl)n2)cc1` [Compound 700]: the pest or weed control at 25 ppm by setting is: under setting [1], 0 to 25%; under setting [3], 26 to 50%. For the same compound, the pest or weed control at 100 ppm lay in the range of 51 to 75% under setting [2] and 76 to 100% under setting [4].
On to `Cc1ccc(COc2ncc(F)c(NNC3CCCCC3)n2)cc1` [Compound 701], for which the pest or weed control at 25 ppm reads like this: under setting [1], 0 to 25%; under setting [3], 0 to 25%. Moreover, the pest or weed control at 100 ppm under setting [2] is 76 to 100% and the pest or weed control at 100 ppm under setting [4] was 76 to 100%.
In the case of `CC[Si](CC)(CC)Nc1nc(OCc2ccc(OC)c(F)c2)ncc1F` [Compound 702], the pest or weed control at 25 ppm is, setting by setting: under setting [1], 76 to 100%; under setting [3], 76 to 100%. The pest or weed control at 100 ppm reads like this: under setting [2], 76 to 100%; under setting [4], 76 to 100%.
Regarding `O=C(Nc1nc(OCc2ccc(F)cc2)ncc1F)c1cccc(CBr)c1` [Compound 703], the pest or weed control at 25 ppm under setting [1] lay in the range of 0 to 25% and the pest or weed control at 25 ppm under setting [3] lay within 0 to 25%. For the same compound, the pest or weed control at 100 ppm under setting [2] was in the range of 26 to 50% and the pest or weed control at 100 ppm under setting [4] was in the range of 0 to 25%.
In the case of `COc1cccc(COc2ncc(F)c(/N=C/N3CCOCC3)n2)c1` [Compound 704], the pest or weed control at 25 ppm was 76 to 100% under setting [1] and 76 to 100% under setting [3]. For the same compound, the pest or weed control at 100 ppm under setting [2] was in the range of 76 to 100% and the pest or weed control at 100 ppm under setting [4] was 76 to 100%.
As to `Nc1nc(OCc2ccc(C(F)(F)F)cc2)ncc1F` [Compound 705], the pest or weed control at 25 ppm fell in the range of 76 to 100% under setting [1] and 51 to 75% under setting [3]. Besides, the pest or weed control at 100 ppm fell in the range of 76 to 100% under setting [2] and 76 to 100% under setting [4].
`CCCNC(=S)Nc1nc(OCc2cccc(C#N)c2)ncc1F` [Compound 706]: the pest or weed control at 25 ppm reads like this: under setting [1], 0 to 25%; under setting [3], 0 to 25%. For the same compound, the pest or weed control at 100 ppm lay within 76 to 100% under setting [2] and 51 to 75% under setting [4].
For the compound `CCCCOc1cccc(COc2ncc(F)c(N)n2)c1` [Compound 708], the pest or weed control at 25 ppm reads like this: under setting [1], 76 to 100%; under setting [3], 76 to 100%. Moreover, the pest or weed control at 100 ppm by setting is: under setting [2], 76 to 100%; under setting [4], 76 to 100%.
For the compound `COc1ccc(COc2ncc(F)c(NCOCc3ccccc3)n2)cc1F` [Compound 709], the pest or weed control at 25 ppm under setting [1] fell in the range of 0 to 25% and the pest or weed control at 25 ppm under setting [3] is 0 to 25%. Moreover, the pest or weed control at 100 ppm by setting is: under setting [2], 76 to 100%; under setting [4], 51 to 75%.
Regarding `Fc1ccccc1NC(=S)Nc1nc(OCc2cccs2)ncc1F` [Compound 711], the pest or weed control at 25 ppm was 51 to 75% under setting [1] and 26 to 50% under setting [3]. In addition, the pest or weed control at 100 ppm under setting [2] was in the range of 76 to 100% and the pest or weed control at 100 ppm under setting [4] was in the range of 76 to 100%.
As to `Nc1nc(OCc2ccccc2F)ncc1F` [Compound 713], the pest or weed control at 25 ppm under setting [1] lay in the range of 76 to 100% and the pest or weed control at 25 ppm under setting [3] was in the range of 51 to 75%. Besides, the pest or weed control at 100 ppm under setting [2] lay within 76 to 100% and the pest or weed control at 100 ppm under setting [4] lay within 76 to 100%.
In the case of `CC(=O)Nc1nc(OC(C)c2ccc(F)cc2)ncc1F` (stereo not drawn) [Compound 714], the pest or weed control at 25 ppm is, setting by setting: under setting [1], 76 to 100%; under setting [3], 76 to 100%. Besides, the pest or weed control at 100 ppm runs as follows: under setting [2], 76 to 100%; under setting [4], 76 to 100%.
For `Nc1nc(Oc2cccc([N+](=O)[O-])c2)ncc1F` [Compound 715], the pest or weed control at 25 ppm under setting [1] fell in the range of 26 to 50% and the pest or weed control at 25 ppm under setting [3] was in the range of 0 to 25%. The pest or weed control at 100 ppm was in the range of 51 to 75% under setting [2] and 0 to 25% under setting [4].
In the case of `Cc1cccc(Oc2ccc(COc3ncc(F)c(N)n3)cc2)c1` [Compound 716], the pest or weed control at 25 ppm runs as follows: under setting [1], 76 to 100%; under setting [3], 76 to 100%. For the same compound, the pest or weed control at 100 ppm reads like this: under setting [2], 76 to 100%; under setting [4], 76 to 100%.
For `Cc1ccc(CNc2nc(OCc3ccc(C)cc3)ncc2F)cc1` [Compound 717], the pest or weed control at 25 ppm is, setting by setting: under setting [1], 51 to 75%; under setting [3], 76 to 100%. Besides, the pest or weed control at 100 ppm lay in the range of 76 to 100% under setting [2] and 76 to 100% under setting [4].
As for `C/C(=N\Nc1nc(OCc2ccc(C)cc2)ncc1F)c1ccc(C)o1` [Compound 718], the pest or weed control at 25 ppm lay within 26 to 50% under setting [1] and 26 to 50% under setting [3]. Also, the pest or weed control at 100 ppm lay within 76 to 100% under setting [2] and 26 to 50% under setting [4].
On to `Nc1nc(OCC2CC2)ncc1F` [Compound 722], for which the pest or weed control at 25 ppm runs as follows: under setting [1], 0 to 25%; under setting [3], 0 to 25%. The pest or weed control at 100 ppm is, setting by setting: under setting [2], 0 to 25%; under setting [4], 26 to 50%.
For `CCCNC(=O)Nc1nc(OCc2ccccc2OC)ncc1F` [Compound 724], the pest or weed control at 25 ppm is, setting by setting: under setting [1], 0 to 25%; under setting [3], 0 to 25%. Besides, the pest or weed control at 100 ppm runs as follows: under setting [2], 26 to 50%; under setting [4], 0 to 25%.
`Nc1nc(OCc2ccc(I)cc2)ncc1F` [Compound 725]: the pest or weed control at 25 ppm reads like this: under setting [1], 76 to 100%; under setting [3], 76 to 100%. Besides, the pest or weed control at 100 ppm is, setting by setting: under setting [2], 76 to 100%; under setting [4], 76 to 100%.
As for `COc1ccc(COc2ncc(F)c(/N=C/N(C)C)n2)cc1` [Compound 726], the pest or weed control at 25 ppm reads like this: under setting [1], 76 to 100%; under setting [3], 76 to 100%. Besides, the pest or weed control at 100 ppm is 76 to 100% under setting [2] and 76 to 100% under setting [4].
Regarding `C/C(=N\c1nc(OCc2ccc(F)cc2)ncc1F)N(C)C` [Compound 727], the pest or weed control at 25 ppm fell in the range of 76 to 100% under setting [1] and 76 to 100% under setting [3]. The pest or weed control at 100 ppm is, setting by setting: under setting [2], 76 to 100%; under setting [4], 76 to 100%.
Consider `CC#CCOc1ncc(F)c(NC(=O)Nc2ccsc2)n1` [Compound 729], for which the pest or weed control at 25 ppm reads like this: under setting [1], 51 to 75%; under setting [3], 51 to 75%. Further, the pest or weed control at 100 ppm is, setting by setting: under setting [2], 26 to 50%; under setting [4], 51 to 75%.
`CC(C)CCOc1ncc(F)c(N)n1` [Compound 731]: the pest or weed control at 25 ppm was 0 to 25% under setting [1] and 0 to 25% under setting [3]. The pest or weed control at 100 ppm reads like this: under setting [2], 0 to 25%; under setting [4], 0 to 25%.
In the case of `Cc1ccccc1COc1ncc(F)c(N)n1` [Compound 733], the pest or weed control at 25 ppm runs as follows: under setting [1], 76 to 100%; under setting [3], 76 to 100%. The pest or weed control at 100 ppm under setting [2] was 76 to 100% and the pest or weed control at 100 ppm under setting [4] was in the range of 76 to 100%.
In the case of `COc1ccc(Oc2ncc(F)c(NC(=O)Nc3ccsc3)n2)cc1` [Compound 737], the pest or weed control at 25 ppm under setting [5] lay within 0 to 25% and the pest or weed control at 25 ppm (72 h, three day curative (3DC), read-out: SEPTTR 3DC 25 ppm) was 0 to 25%. The pest or weed control at 100 ppm reads like this: under setting [6], 0 to 25%; (72 h, three day curative (3DC), read-out: SEPTTR 3DC 100 ppm) 0 to 25%.
As for `CCCCCC(CC)Oc1ncc(F)c(N)n1` (stereo not drawn) [Compound 740], under setting [5], the pest or weed control at 25 ppm is 0 to 25%. The pest or weed control at 100 ppm under setting [6] was 0 to 25%.
